ChEMBL document CHEMBL3864133, “Discovery of a Potent and Selective in Vivo Probe (GNE-272) for the Bromodomains of CBP/EP300” (J Med Chem, 2016)
The source made the active and inactive calls. The calls are words filed in the database; no cut-off is given here.

Legend:
[1] = Apparent permeability of the compound across apical side to basolateral side in MDCK cells at 10 uM measured after 180 mins by LC-MS/MS analysis; type: ADME, cell-based, Canis lupus familiaris; conditions: dog
[2] = Protein binding in nu/nu mouse plasma at 5 uM measured after 4 hrs by LC-MS/MS analysis; type: ADME, cell-free; conditions: read-out: PPB (converted)
[3] = Oral bioavailability in nu/nu mouse at 100 mg/kg by LC-MS/MS analysis; type: ADME, organism-based; conditions: in vivo
[4] = Volume of distribution at steady state in nu/nu mouse at 1 mg/kg, iv or 100 mg/kg, po by LC-MS/MS analysis; type: ADME, organism-based; conditions: in vivo, read-out: Vdss
[5] = Cmax in nu/nu mouse at 100 mg/kg, po by LC-MS/MS analysis; type: ADME, organism-based; parameters: dose 100 mg/kg, route oral; conditions: in vivo
Cytochrome P450 2C9 = Cytochrome P450 2C9 (Homo sapiens, UniProt P11712); assay: Inhibition of CYP2C9 in human liver microsomes assessed as formation of 7-hydroxywarfarin from warfarin measured after 30 mins in presence of NADPH by LC-MS/MS analysis; type: ADME; conditions: 0.5 h
[6] = fCmax in nu/nu mouse at 100 mg/kg, po by LC-MS/MS analysis; type: ADME, organism-based; conditions: in vivo
Cytochrome P450 1A2 = Cytochrome P450 1A2 (Homo sapiens, UniProt P05177); assay: Inhibition of CYP1A2 in human liver microsomes assessed as formation of acetaminophen from phenacetin measured after 30 mins in presence of NADPH by LC-MS/MS analysis; type: ADME; conditions: 0.5 h
Cytochrome P450 2C19 = Cytochrome P450 2C19 (Homo sapiens, UniProt P33261); assay: Inhibition of CYP2C19 in human liver microsomes assessed as formation of 4-hydroxymephenytoin from mephenytoin measured after 40 mins in presence of NADPH by LC-MS/MS analysis; type: ADME
Cytochrome P450 2D6 = Cytochrome P450 2D6 (Homo sapiens, UniProt P10635); assay: Inhibition of CYP2D6 in human liver microsomes assessed as formation of dextrophan from dextromethorphan measured after 10 mins in presence of NADPH by LC-MS/MS analysis; type: ADME
[7] = target: T1, CREB-binding protein/Histone acetyltransferase p300 (Homo sapiens, UniProt Q09472+Q92793); assay: Inhibition of CBP/EP300 in human HL60 cells assessed as decrease in MYC expression at 5 uM measured after 4 hrs by RT-PCR analysis relative to DMSO control; type: cell-based; conditions: HL-60
[8] = target: T1, CREB-binding protein/Histone acetyltransferase p300; assay: Inhibition of CBP/EP300 in human LP-1 cells assessed as decrease in MYC expression at 5 uM measured after 4 hrs by RT-PCR analysis relative to DMSO control; type: cell-based
[9] = target: T1, CREB-binding protein/Histone acetyltransferase p300; assay: Inhibition of CBP/EP300 in human MOLM16 cells assessed as suppression of MYB expression at 5 uM measured after 4 hrs by RT-PCR analysis relative to DMSO control; type: cell-based
[10] = target: T1, CREB-binding protein/Histone acetyltransferase p300; assay: Inhibition of CBP/EP300 in human MOLM16 cells assessed as suppression of BCL2 expression at 5 uM measured after 4 hrs by RT-PCR analysis relative to DMSO control; type: cell-based
[11] = target: T1, CREB-binding protein/Histone acetyltransferase p300; assay: Inhibition of CBP/EP300 in human MOLM16 cells assessed as suppression of BCL-XL expression at 5 uM measured after 4 hrs by RT-PCR analysis relative to DMSO control; type: cell-based
[12] = target: T1, CREB-binding protein/Histone acetyltransferase p300; assay: Inhibition of CBP/EP300 in human MOLM16 cells assessed as suppression of MCL1 expression at 5 uM measured after 4 hrs by RT-PCR analysis relative to DMSO control; type: cell-based
[13] = target: T1, CREB-binding protein/Histone acetyltransferase p300; assay: Inhibition of CBP/EP300 in human MOLM16 cells assessed as suppression of BCL6 expression at 5 uM measured after 4 hrs by RT-PCR analysis relative to DMSO control; type: cell-based
[14] = target: T1, CREB-binding protein/Histone acetyltransferase p300; assay: Inhibition of CBP/EP300 in human MOLM16 cells assessed as decrease in MYC expression measured after 4 hrs by RT-PCR analysis; type: cell-based
[15] = target: T1, CREB-binding protein/Histone acetyltransferase p300; assay: Inhibition of CBP/EP300 in human MOLM16 cells assessed as decrease in MYC expression at 0.1 to 1 uM measured after 4 hrs Western blot analysis; type: cell-based
Jurkat = assay: Antiproliferative activity against human Jurkat cells measured after 6 days by CellTiter-Glo assay; type: functional, cell-based
DOHH-2 = assay: Antiproliferative activity against human DOHH2 cells measured after 6 days by CellTiter-Glo assay; type: functional, cell-based
KMS26 = assay: Antiproliferative activity against human KMS26 cells measured after 6 days by CellTiter-Glo assay; type: functional, cell-based
HL-60 = assay: Antiproliferative activity against human HL60 cells measured after 6 days by CellTiter-Glo assay; type: functional, cell-based
Pfeiffer = assay: Antiproliferative activity against human Pfeiffer cells measured after 6 days by CellTiter-Glo assay; type: functional, cell-based
MOLM16 [16] = assay: Antiproliferative activity against human MOLM16 cells measured after 6 days by CellTiter-Glo assay; type: functional, cell-based
EJM = assay: Antiproliferative activity against human EJM cells measured after 6 days by CellTiter-Glo assay; type: functional, cell-based
U-266 = assay: Antiproliferative activity against human U266B1 cells measured after 6 days by CellTiter-Glo assay; type: functional, cell-based
THP2 = assay: Antiproliferative activity against human THP2 cells measured after 6 days by CellTiter-Glo assay; type: functional, cell-based
KMS-11 = assay: Antiproliferative activity against human KMS11 cells measured after 6 days by CellTiter-Glo assay; type: functional, cell-based
[17] = Decrease in MYC mRNA expression in tumor of SCID beige mouse xenografted with human MOLM16 cells at 10 mg/kg, po administered twice daily via gavage as single dose measured after 2 to 8 hrs by RT-PCR analysis; type: functional, organism-based
[18] = Decrease in MYC mRNA expression in tumor of SCID beige mouse xenografted with human MOLM16 cells at 100 mg/kg, po administered twice daily via gavage as single dose measured after 2 hrs by RT-PCR analysis relative to control; type: functional, organism-based
[19] = Antitumor activity against human MOLM16 cells xenografted in SCID beige mouse assessed as tumor growth inhibition at 12.5 mg/kg, po BID administered through gavage for 21 days; type: functional; conditions: read-out: TGI
[20] = Antitumor activity against human MOLM16 cells xenografted in SCID beige mouse assessed as tumor growth inhibition at 25 mg/kg, po BID administered through gavage for 21 days; type: functional; conditions: read-out: TGI
[21] = Antitumor activity against human MOLM16 cells xenografted in SCID beige mouse assessed as tumor growth inhibition at 50 mg/kg, po BID administered through gavage for 21 days; type: functional; conditions: read-out: TGI
MOLM16 [22] = assay: Antitumor activity against human MOLM16 cells xenografted in SCID beige mouse assessed as tumor growth inhibition compound administered through oral gavage twice daily for 21 days; type: functional, cell-based
Mus musculus = assay: Inhibition of MYC mRNA expression in SCID beige mouse xenografted with human MOLM16 cells assessed as MYC transcript level at 3 to 100 mg/kg, po administered twice daily via gavage as single dose measured after 24 hrs by RT-PCR analysis relative to control; type: functional; parameters: scale not given: the % may be the effect or the level left
[23] = Time at which unbound drug level in SCID beige mouse tumor stays above cellular MYC EC90 at 10 mg/kg, po administered twice daily via gavage as single dose; type: ADME, organism-based; conditions: in vivo

T1 sequence (Q09472 whole entry, looked up): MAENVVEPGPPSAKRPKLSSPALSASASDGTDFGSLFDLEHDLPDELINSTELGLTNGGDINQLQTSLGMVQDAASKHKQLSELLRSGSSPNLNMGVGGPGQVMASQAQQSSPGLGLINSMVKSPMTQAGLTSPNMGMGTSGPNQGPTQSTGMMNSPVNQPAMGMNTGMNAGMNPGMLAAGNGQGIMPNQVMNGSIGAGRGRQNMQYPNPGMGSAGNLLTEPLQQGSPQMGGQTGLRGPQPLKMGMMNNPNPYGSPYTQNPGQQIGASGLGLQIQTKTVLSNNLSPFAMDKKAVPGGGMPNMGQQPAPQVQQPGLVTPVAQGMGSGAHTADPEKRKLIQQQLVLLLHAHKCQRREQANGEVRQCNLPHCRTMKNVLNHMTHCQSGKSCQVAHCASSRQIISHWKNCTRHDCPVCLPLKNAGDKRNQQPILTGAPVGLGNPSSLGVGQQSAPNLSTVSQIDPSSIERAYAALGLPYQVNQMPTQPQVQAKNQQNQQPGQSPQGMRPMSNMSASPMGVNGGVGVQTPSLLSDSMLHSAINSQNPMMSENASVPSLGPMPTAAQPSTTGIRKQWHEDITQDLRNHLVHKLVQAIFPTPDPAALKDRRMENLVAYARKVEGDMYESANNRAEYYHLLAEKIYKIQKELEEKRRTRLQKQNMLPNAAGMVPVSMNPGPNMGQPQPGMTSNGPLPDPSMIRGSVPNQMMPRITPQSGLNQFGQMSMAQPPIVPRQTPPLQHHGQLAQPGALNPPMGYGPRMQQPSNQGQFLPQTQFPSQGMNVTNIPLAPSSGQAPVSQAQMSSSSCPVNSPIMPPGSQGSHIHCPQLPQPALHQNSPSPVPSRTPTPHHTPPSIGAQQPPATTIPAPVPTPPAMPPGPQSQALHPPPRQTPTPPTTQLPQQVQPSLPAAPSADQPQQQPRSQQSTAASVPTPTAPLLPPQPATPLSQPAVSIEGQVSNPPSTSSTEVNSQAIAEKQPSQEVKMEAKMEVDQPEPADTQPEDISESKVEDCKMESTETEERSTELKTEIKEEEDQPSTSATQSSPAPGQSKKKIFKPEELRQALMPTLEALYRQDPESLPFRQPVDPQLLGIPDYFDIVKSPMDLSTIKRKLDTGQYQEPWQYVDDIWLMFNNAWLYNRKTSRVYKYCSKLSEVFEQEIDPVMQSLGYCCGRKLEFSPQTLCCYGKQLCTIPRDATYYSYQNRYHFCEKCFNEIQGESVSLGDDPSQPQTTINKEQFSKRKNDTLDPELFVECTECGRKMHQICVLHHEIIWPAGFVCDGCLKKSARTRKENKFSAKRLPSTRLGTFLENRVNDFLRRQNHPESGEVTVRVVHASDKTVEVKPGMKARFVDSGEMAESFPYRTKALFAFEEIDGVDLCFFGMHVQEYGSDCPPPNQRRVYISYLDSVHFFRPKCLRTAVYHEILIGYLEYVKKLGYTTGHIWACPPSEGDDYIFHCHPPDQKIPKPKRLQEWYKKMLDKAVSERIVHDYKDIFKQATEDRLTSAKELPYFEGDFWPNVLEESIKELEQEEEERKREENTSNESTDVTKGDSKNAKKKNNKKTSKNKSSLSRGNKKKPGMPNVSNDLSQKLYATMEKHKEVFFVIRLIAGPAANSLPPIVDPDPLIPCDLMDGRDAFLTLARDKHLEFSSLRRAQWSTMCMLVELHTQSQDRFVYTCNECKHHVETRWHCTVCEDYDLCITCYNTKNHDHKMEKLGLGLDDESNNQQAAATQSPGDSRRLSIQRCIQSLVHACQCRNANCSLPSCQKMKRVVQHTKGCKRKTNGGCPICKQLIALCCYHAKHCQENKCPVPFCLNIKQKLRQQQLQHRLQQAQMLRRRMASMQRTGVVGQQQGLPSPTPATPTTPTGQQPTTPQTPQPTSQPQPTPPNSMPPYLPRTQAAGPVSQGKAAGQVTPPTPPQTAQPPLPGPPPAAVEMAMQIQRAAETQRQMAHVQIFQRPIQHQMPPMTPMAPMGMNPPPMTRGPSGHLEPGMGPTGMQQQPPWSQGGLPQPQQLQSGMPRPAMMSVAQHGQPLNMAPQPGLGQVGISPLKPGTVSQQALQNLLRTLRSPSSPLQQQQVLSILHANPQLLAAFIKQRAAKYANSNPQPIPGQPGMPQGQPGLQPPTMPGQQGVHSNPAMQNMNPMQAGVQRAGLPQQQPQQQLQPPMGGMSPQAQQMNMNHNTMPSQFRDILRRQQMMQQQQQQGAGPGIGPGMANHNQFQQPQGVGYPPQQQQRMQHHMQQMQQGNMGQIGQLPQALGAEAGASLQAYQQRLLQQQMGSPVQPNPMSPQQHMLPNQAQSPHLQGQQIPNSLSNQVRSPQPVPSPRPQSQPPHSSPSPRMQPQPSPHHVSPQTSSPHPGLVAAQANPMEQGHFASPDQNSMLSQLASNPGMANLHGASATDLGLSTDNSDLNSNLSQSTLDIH
T1 sequence (Q92793 whole entry, looked up): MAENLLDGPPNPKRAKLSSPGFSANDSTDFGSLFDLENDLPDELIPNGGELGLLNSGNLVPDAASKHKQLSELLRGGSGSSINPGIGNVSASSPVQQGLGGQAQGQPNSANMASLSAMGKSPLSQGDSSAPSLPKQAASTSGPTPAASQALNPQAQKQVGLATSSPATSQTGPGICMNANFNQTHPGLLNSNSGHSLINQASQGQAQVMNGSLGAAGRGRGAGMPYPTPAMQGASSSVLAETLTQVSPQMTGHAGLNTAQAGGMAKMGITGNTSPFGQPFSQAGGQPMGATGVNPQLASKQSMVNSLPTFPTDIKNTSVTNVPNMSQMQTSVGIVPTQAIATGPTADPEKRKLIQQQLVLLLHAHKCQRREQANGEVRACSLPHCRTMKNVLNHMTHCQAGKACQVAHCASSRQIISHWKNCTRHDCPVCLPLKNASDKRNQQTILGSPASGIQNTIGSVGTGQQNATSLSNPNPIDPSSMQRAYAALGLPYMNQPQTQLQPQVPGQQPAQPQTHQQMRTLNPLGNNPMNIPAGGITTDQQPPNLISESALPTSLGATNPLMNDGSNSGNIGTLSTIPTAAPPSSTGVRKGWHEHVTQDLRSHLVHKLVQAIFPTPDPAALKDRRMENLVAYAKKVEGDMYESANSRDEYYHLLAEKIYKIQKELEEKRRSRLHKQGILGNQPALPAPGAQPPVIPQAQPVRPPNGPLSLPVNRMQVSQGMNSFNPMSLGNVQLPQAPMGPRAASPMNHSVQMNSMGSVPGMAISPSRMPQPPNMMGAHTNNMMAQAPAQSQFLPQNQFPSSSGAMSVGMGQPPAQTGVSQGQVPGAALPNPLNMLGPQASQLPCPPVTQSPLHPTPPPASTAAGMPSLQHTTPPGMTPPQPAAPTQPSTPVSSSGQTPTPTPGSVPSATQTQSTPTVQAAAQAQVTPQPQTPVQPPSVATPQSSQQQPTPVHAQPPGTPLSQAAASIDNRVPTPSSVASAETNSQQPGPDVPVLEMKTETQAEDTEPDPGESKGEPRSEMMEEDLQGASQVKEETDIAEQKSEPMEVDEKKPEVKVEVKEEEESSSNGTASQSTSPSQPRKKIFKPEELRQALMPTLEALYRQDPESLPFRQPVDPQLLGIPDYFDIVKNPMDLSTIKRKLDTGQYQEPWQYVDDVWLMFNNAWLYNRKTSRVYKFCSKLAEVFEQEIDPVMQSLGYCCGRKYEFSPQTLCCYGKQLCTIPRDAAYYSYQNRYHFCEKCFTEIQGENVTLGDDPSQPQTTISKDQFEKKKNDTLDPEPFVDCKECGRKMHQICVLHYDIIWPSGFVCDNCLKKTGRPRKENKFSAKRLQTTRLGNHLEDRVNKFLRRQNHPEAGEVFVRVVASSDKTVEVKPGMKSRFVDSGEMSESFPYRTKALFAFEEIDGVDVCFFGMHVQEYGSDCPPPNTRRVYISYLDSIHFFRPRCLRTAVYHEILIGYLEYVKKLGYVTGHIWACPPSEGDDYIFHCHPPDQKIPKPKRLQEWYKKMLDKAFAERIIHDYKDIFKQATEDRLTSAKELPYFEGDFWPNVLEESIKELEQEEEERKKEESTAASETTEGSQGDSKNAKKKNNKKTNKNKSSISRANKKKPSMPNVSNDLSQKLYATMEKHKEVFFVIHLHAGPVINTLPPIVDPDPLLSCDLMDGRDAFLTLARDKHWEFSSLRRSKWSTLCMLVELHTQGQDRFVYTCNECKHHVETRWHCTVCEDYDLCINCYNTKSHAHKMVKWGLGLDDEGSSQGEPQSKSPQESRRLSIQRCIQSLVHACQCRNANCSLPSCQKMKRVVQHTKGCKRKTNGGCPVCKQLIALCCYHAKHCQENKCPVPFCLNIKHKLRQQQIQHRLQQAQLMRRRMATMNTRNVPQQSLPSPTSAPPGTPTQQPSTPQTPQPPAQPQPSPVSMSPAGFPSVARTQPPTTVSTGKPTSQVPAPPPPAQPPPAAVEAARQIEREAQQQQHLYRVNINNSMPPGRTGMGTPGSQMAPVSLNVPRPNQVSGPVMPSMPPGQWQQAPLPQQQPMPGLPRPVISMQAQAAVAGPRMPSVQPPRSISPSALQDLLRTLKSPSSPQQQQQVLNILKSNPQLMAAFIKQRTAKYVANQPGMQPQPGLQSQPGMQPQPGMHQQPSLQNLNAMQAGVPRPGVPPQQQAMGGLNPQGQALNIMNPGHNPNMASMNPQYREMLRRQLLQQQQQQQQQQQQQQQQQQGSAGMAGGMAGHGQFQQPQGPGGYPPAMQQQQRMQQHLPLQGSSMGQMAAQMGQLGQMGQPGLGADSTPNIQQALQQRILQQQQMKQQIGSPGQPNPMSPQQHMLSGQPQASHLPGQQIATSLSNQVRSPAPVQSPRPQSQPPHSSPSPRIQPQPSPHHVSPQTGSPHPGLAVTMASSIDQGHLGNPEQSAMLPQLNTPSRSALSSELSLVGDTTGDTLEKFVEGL

CC(=O)N1CCc2c(c(Nc3ccc(-c4cnn(C)c4)cc3F)nn2[C@@H]2CCOC2)C1
Papp A→B at 3 h, 10 µM [1]: 15 ×10⁻⁶ cm/s
fraction unbound at 4 h, 5 µM [2]: 0.16
bioavailability [3]: 100%
Vd [4]: 1.5 L/kg
Cmax [5]: 163 µM
INH (Cytochrome P450 2C9): > 10 µM
fCmax [6]: 26 µM
INH (Cytochrome P450 1A2): > 10 µM
INH (Cytochrome P450 2C19): > 10 µM
INH (Cytochrome P450 2D6): > 10 µM
inhibition [7]: Active
inhibition [8]: Active
inhibition [9]: Active
inhibition [10]: Active
inhibition [11]: Active
inhibition [12]: Active
inhibition [13]: Active
EC90 [14]: 621 nM
inhibition [15]: Active
Activity (Jurkat): Active
Activity (DOHH-2): Active
Activity (KMS26): Active
Activity (HL-60): Active
Activity (Pfeiffer): Active
Activity (MOLM16 [16]): Active
Activity (EJM): Active
Activity (U-266): Active
Activity (THP2): Active
Activity (KMS-11): Active
inhibition [17]: Active
inhibition [18]: 86%
inhibition in vivo at 12.5 mg/kg [19]: 46%
inhibition in vivo at 25 mg/kg [20]: 65%
inhibition in vivo at 50 mg/kg [21]: 102%
TGI (MOLM16 [22]): Dose-dependent effect
Activity (Mus musculus): 150 - 200%
Time [23]: 24 h
